The record followed here is patent US7615642B2, “Therapeutic compounds” (priority 2006, dated 2009).

Series [1] addresses T1, Human CB1 receptor (Homo sapiens, UniProt P21554).
T1 construct: purchased Receptor Biology
Description: hCB1 receptor binding (3H-CP55,940 displacement). The method, then:
Human CB1 receptor from Receptor Biology (hCB1) or human CB2 receptor from BioSignal (hCB2) membranes are thawed at 37° C., passed 3 times through a 25-gauge blunt-end needle, diluted in the cannabinoid binding buffer (50 mM Tris, 2.5 mM EDTA, 5 mM MgCl2, and 0.5 mg/mL BSA fatty acid free, pH 7.4) and aliquots containing the appropriate amount of protein are distributed into 96-well plates. The IC50 of the compounds of the invention at hCB1 and hCB2 are evaluated from 10-point dose-response curves done with ^3H-CP55,940 at 20000 to 25000 dpm per well (0.17-0.21 nM) in a final volume of 300 μl. The total and non-specific binding are determined in the absence and presence of 0.2 μM of HU210 respectively. The plates are vortexed and incubated for 60 minutes at room temperature, filtered through Unifilters GF/B (presoaked in 0.1% polyethyleneimine) with the Tomtec or Packard harvester using 3 mL of wash buffer (50 mM Tris, 5 mM MgCl2, 0.5 mg BSA pH 7.0). The filters are dried for 1 hour at 55° C. The radioactivity (cpm) is counted in a TopCount (Packard) after adding 65 μl/well of MS-20 scintillation liquid.
Based on the above assays, the dissociation constant (Ki) for a particular compound of the invention towards a particular receptor is determined using the following equation: Ki=IC50/(1+[rad]/Kd),
Wherein IC50 is the concentration of the compound of the invention at which 50% displacement has been observed;
[rad] is a standard or reference radioactive ligand concentration at that moment; and
Kd is the dissociation constant of the radioactive ligand towards the particular receptor.

Series [2] deals with T1, Human CB1 receptor. The series is described as follows: hCB1 GTPγS binding. It is filed as biochemical. Conditions: human CB1 membranes, GTPg35S binding. The method, then:
Human CB1 receptor from Receptor Biology (hCB1) or human CB2 receptor membranes (BioSignal) are thawed at 37° C., passed 3 times through a 25-gauge blunt-end needle and diluted in the GTPγS binding buffer (50 mM Hepes, 20 mM NaOH, 100 mM […], 1 mM EDTA, 5 mM MgCl2, pH 7.4, 0.1% BSA). The EC50 and Emax of the compounds of the invention are evaluated from 10-point dose-response curves done in […] with the appropriate amount of membrane protein and 100000-130000 dpm of GTPg^35S per well (0.11-0.14 nM). The basal and maximal stimulated binding is determined in absence and presence of 1 μM (hCB2) or 10 μM (hCB1) Win 55,212-2 respectively. The membranes are pre-incubated for 5 minutes with 56.25 μM (hCB2) or 112.5 μM (hCB1) GDP prior to distribution in plates (15 μM (hCB2) or 30 μM (hCB1) GDP final). The plates are vortexed and incubated for 60 minutes at room temperature, filtered on Unifilters GF/B (presoaked in water) with the Tomtec or Packard harvester using 3 ml of wash buffer (50 mM Tris, 5 mM MgCl2, 50 mM NaCl, pH 7.0). The filters are dried for 1 hour at 55° C. The radioactivity (cpm) is counted in a TopCount (Packard) after adding 65 μl/well of MS-20 scintillation liquid. Antagonist reversal studies are done in the same way except that (a) an agonist dose-response curve is done in the presence of a constant concentration of antagonist, or (b) an antagonist dose-response curve is done in the presence of a constant concentration of agonist.
In general terms: GTPγS resists hydrolysis and so accumulates on activated G proteins.

Converted amounts (≈) assume the structure as drawn.

T1 sequence (P21554 whole entry): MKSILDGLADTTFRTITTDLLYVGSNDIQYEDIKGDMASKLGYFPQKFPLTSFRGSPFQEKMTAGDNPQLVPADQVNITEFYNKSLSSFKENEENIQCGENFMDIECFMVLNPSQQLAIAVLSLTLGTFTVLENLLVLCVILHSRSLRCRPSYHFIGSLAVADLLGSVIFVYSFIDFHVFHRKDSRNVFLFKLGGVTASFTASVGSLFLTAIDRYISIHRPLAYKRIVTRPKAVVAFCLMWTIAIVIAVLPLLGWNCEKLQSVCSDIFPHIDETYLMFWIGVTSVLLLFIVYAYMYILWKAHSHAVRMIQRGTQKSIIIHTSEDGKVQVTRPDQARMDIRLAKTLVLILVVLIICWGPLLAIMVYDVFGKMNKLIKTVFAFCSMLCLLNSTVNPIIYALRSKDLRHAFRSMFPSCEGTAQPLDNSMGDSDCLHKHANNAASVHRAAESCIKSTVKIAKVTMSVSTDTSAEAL

In turn, `CC(C)(C)c1nc2cc(S(=O)(=O)n3cc(C(=O)NC4CC4)cn3)ccc2n1CC1CCC(F)(F)CC1` [1-({2-tert-Butyl-1-[(4,4-difluorocyclohexyl)methyl]-1H-benzimidazol-5-yl}sulfonyl)-N-cyclopropyl-1H-pyrazole-4-carboxamide] came in with a solubility in the series “Solubility” of 6.16 µM (≈ 3.2 µg/mL). In addition, the affinity at Human CB1 receptor [1], expressed as Ki, was 0.88 nM. In addition, on Human CB1 receptor [2], the EC50 stood at 0.58 nM.
Take `CNC(=O)C1CCN(S(=O)(=O)c2ccc3c(c2)nc(C(C)(C)C)n3CC2CCOCC2)C1` (stereo not drawn) [1-{[2-tert-Butyl-1-(tetrahydro-2H-pyran-4-ylmethyl)-1H-benzimidazol-5-yl]sulfonyl}-N-methylpyrrolidine-3-carboxamide]: the solubility in “Solubility” was determined as 2600 µM (≈ 1200 µg/mL). At Human CB1 receptor [1], the Ki came to 833 nM.
In the series “Solubility”, `CC(C)(C)c1nc2cc(S(=O)(=O)N3CCC[C@H](C(=O)NC4CC4)C3)ccc2n1CC1CCC(F)(F)CC1` [(3S)-1-({2-tert-Butyl-1-[(4,4-difluorocyclohexyl)methyl]-1H-benzimidazol-5-yl}sulfonyl)-N-cyclopropylpiperidine-3-carboxamide] displayed a solubility of 29.4 µM (≈ 15.8 µg/mL). The compound further displayed a Ki on Human CB1 receptor [1] of 2.05 nM. This compound came in with an EC50 at Human CB1 receptor [2] of 1.71 nM.
Turning to `CC(F)(F)c1nc2cc(S(=O)(=O)n3ccc(C(=O)NC4CC4)c3)ccc2n1CC1CCOCC1` [N-Cyclopropyl-1-{[2-(1,1-difluoroethyl)-1-(tetrahydro-2H-pyran-4-ylmethyl)-1H-benzimidazol-5-yl]sulfonyl}-1H-pyrrole-3-carboxamide], the concentration in solution in “Solubility” (solubility) was 6.2 µM (≈ 3.05 µg/mL). This compound also had a Ki at Human CB1 receptor [1] of 19.1 nM. This compound yielded an EC50 at Human CB1 receptor [2] of 17.8 nM.
For the compound `CC(C)(C)c1nc2cc(S(=O)(=O)N3CCCC(c4ccccc4)C3)ccc2n1CC1CCOCC1` (stereo not drawn) [2-tert-Butyl-5-[(3-phenylpiperidin-1-yl)sulfonyl]-1-(tetrahydro-2H-pyran-4-ylmethyl)-1H-benzimidazole], in “Solubility”, the solubility was determined as 0.79 µM (≈ 0.392 µg/mL). Also, the Ki on Human CB1 receptor [1] came out at 278 nM.
Compound `CCNC(=O)c1ccn(S(=O)(=O)c2ccc3c(c2)nc(C(C)(F)F)n3CC2CCOCC2)c1` [1-{[2-(1,1-Difluoroethyl)-1-(tetrahydro-2H-pyran-4-ylmethyl)-1H-benzimidazol-5-yl]sulfonyl}-N-ethyl-1H-pyrrole-3-carboxamide] yielded a solubility in “Solubility” of 7.45 µM (≈ 3.58 µg/mL). In addition, the Ki on Human CB1 receptor [1] came out at 88 nM.
Take `CC(C)(C)c1nc2cc(S(=O)(=O)n3ccc(C(=O)NC4CC4)c3)ccc2n1CC1CCOCC1` [1-{[2-tert-Butyl-1-(tetrahydro-2H-pyran-4-ylmethyl)-1H-benzimidazol-5-yl]sulfonyl}-N-cyclopropyl-1H-pyrrole-3-carboxamide]: the solubility in “Solubility” is 5.64 µM (≈ 2.73 µg/mL). Also, on Human CB1 receptor [1], affinity was put at a Ki of 5.68 nM. The same compound showed an EC50 at Human CB1 receptor [2] of 10.5 nM.
Consider `CCCNC(=O)[C@H]1CCCN(S(=O)(=O)c2ccc3c(c2)nc(C(C)(C)C)n3CC2CCC(F)(F)CC2)C1` [(3S)-1-({2-tert-Butyl-1-[(4,4-difluorocyclohexyl)methyl]-1H-benzimidazol-5-yl}sulfonyl)-N-propylpiperidine-3-carboxamide], for which the solubility in the series “Solubility” was determined as 16.8 µM (≈ 9.04 µg/mL). Also, at Human CB1 receptor [1], affinity was put at a Ki of 2.03 nM. On Human CB1 receptor [2], this compound showed an EC50 of 1.69 nM.
For `CC(C)(C)c1nc2cc(S(=O)(=O)N3CCC(c4ccccc4)C3)ccc2n1CC1CCOCC1` (stereo not drawn) [2-tert-Butyl-5-[(3-phenylpyrrolidin-1-yl)sulfonyl]-1-(tetrahydro-2H-pyran-4-ylmethyl)-1H-benzimidazole], the concentration in solution in the series “Solubility” (solubility) was 7.29 µM (≈ 3.51 µg/mL). The Ki at Human CB1 receptor [1] amounted to 110 nM.
`CCNC(=O)[C@@H]1CN(S(=O)(=O)c2ccc3c(c2)nc(C(C)(C)C)n3CC2CCC(F)(F)CC2)CCO1` [(2S)-4-({2-tert-butyl-1-[(4,4-difluorocyclohexyl)methyl]-1H-benzimidazol-5-yl}sulfonyl)-N-ethylmorpholine-2-carboxamide] came in with a solubility in the series “Solubility” of 43.4 µM (≈ 22.8 µg/mL). The Ki at Human CB1 receptor [1] came to 18 nM. The same compound had an EC50 on Human CB1 receptor [2] of 43.8 nM.
Take `CCNC(=O)c1ccn(S(=O)(=O)c2ccc3c(c2)nc(C(C)(C)C)n3CC2CCOCC2)c1` [1-{[2-tert-butyl-1-(tetrahydro-2H-pyran-4-ylmethyl)-1H-benzimidazol-5-yl]sulfonyl}-N-ethyl-1H-pyrrole-3-carboxamide]: the solubility in the series “Solubility” was determined as 28 µM (≈ 13.2 µg/mL). Also, affinity at Human CB1 receptor [1] was put at a Ki of 24.2 nM. For the same compound, a half-maximal effect on Human CB1 receptor [2] (EC50) was put at 84.2 nM.
For the compound `CC(C)(C)c1nc2cc(S(=O)(=O)N3CCOCC3)ccc2n1CC1CCOCC1` [2-tert-Butyl-5-(morpholin-4-ylsulfonyl)-1-(tetrahydro-2H-pyran-4-ylmethyl)-1H-benzimidazole], the solubility in “Solubility” amounted to 128 µM (≈ 54.1 µg/mL). Also, the Ki at Human CB1 receptor [1] was 1530 nM.
In the series “Solubility”, `CC(C)(C)c1nc2cc(S(=O)(=O)N3CCOC(C(=O)NC4CC4)C3)ccc2n1CC1CCC(F)(F)CC1` (stereo not drawn) [4-({2-tert-Butyl-1-[(4,4-difluorocyclohexyl)methyl]-1H-benzimidazol-5-yl}sulfonyl)-N-cyclopropylmorpholine-2-carboxamide] showed a solubility of 42.5 µM (≈ 22.9 µg/mL). Also, on Human CB1 receptor [1], the Ki was determined as 11.3 nM. The compound further registered an EC50 at Human CB1 receptor [2] of 10.4 nM.
Consider `CC(C)(C)c1nc2cc(S(=O)(=O)n3ccc(N)n3)ccc2n1CC1CCOCC1` [1-{[2-tert-Butyl-1-(tetrahydro-2H-pyran-4-ylmethyl)-1H-benzimidazol-5-yl]sulfonyl}-1H-pyrazol-3-amine], for which the solubility in the series “Solubility” was determined as 43 µM (≈ 18 µg/mL). On Human CB1 receptor [1], this compound gave a Ki of 252 nM.
Consider `CCNC(=O)c1cnn(S(=O)(=O)c2ccc3c(c2)nc(C(C)(C)C)n3CC2CCOCC2)c1` [1-{[2-tert-Butyl-1-(tetrahydro-2H-pyran-4-ylmethyl)-1H-benzimidazol-5-yl]sulfonyl}-N-ethyl-1H-pyrazole-4-carboxamide], for which, in “Solubility”, the solubility came out at 337 µM (≈ 160 µg/mL). At Human CB1 receptor [1], this compound registered a Ki of 14.6 nM. Besides, the EC50 at Human CB1 receptor [2] came to 57.2 nM.
As to `CC(C)NC(=O)c1cnn(S(=O)(=O)c2ccc3c(c2)nc(C(C)(C)C)n3CC2CCC(F)(F)CC2)c1` [1-({2-tert-Butyl-1-[(4,4-difluorocyclohexyl)methyl]-1H-benzimidazol-5-yl}sulfonyl)-N-isopropyl-1H-pyrazole-4-carboxamide], the solubility in “Solubility” came out at 0.26 µM (≈ 0.136 µg/mL). This compound also showed a Ki on Human CB1 receptor [1] of 1.82 nM. The compound also had an EC50 at Human CB1 receptor [2] of 3.41 nM.
`CNC(=O)c1cnn(S(=O)(=O)c2ccc3c(c2)nc(C(C)(C)C)n3CC2CCC(F)(F)CC2)c1` [1-({2-tert-Butyl-1-[(4,4-difluorocyclohexyl)methyl]-1H-benzimidazol-5-yl}sulfonyl)-N-methyl-1H-pyrazole-4-carboxamide] registered a solubility in the series “Solubility” of 2.52 µM (≈ 1.24 µg/mL). Besides, affinity at Human CB1 receptor [1] was put at a Ki of 1.61 nM. This compound showed an EC50 at Human CB1 receptor [2] of 1.21 nM.

A word on the solubility: it is the dissolved amount per volume that the medium holds. Low values mean a poorly soluble substance, high ones a readily soluble substance. For orientation: Ki means the equilibrium dissociation constant of an inhibitor or competing ligand from its target. The EC50 is the midpoint of the concentration-response curve.
